Measurements taken from patent US20200270309A1, “MALEIMIDE GROUP-MODIFIED ANGIOGENESIS INHIBITOR HM-1 AND USE THEREOF” (NANJING ANJI BIOLOGICAL TECHNOLOGY CO., LTD, priority 2017, published 2020).
Marks after values point to notes of the source that are not given here. Peptide text beside a SMILES is read from it. * marks the point of attachment. X84 = O=C1C=CC(=O)N1c1ccccc1CCCCCCCCCCCCC(=O)*; X79 = O=C1C=CC(=O)N1c1cccc(CCC(=O)*)c1; X75 = O=C1C=CC(=O)N1c1cccc(CC(=O)*)c1

What was measured:
HUVECs = experiment: Transwell migration inhibition on HUVECs; format: cell-based, human; details: for Inhibition rate (%): HUVEC migration vs blank control; for Cell migration number (Mean ± SD): HUVECs, transwell, 24 h
[1] = test system: retinal neovascularization (OIR model); experiment: Retinal vessels in OIR mice; format: in vivo, C57/B16 mice; details: for Area of neovascular plexus (mm^2): dose 0.05 μM in the vitreous chamber on day 13, retinal vessels evaluated on day 17; for Inhibition rate (%): dose 0.05 μM in the vitreous chamber on day 13, retinal vessels evaluated on day 17, vs negative control
Outline: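 C57/B16 pups were held in 75% oxygen from postnatal day 7 to 12, then returned to room air. On day 13 they received intravitreal saline or compound. On day 17 perfused vessels were labelled by Texas red tomato agglutinin injected into the left ventricle (5 min circulation) and retinal vasculature assessed.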

[2] = test system: human retinal capillary endothelial cells (HRCECs); experiment: MTT proliferation inhibition on HRCECs; format: cell-based; details: 48 h; for A570 nm-A630 nm: mean±SD
Outline: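 HRCECs seeded at 3.0×10^4 cells/mL, adhered overnight, then exposed to polypeptide for 48 h at 37 °C, 5% CO2. MTT added 4 h, formazan dissolved in DMSO, absorbance 570/630 nm; PIR (%) = 1 − treated/negative control, mean±SD of three independent runs.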

[3] = Half-lives and pharmacokinetic parameters of polypeptides vs HM-1; details: in vivo; for half-life: T1/2β (half-life)
[4] = test system: xylene-induced ear swelling; experiment: Xylene-induced mouse ear swelling; format: in vivo; details: Kunming mice, injected once a day for 5 days; for Swelling degree / Swelling degree (mg): right minus left ear piece weight 2 h after xylene; for Inhibition rate (%): xylene-induced ear swelling
Outline: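 Kunming mice dosed by injection once daily for 5 days; 1 h after last dose, 0.05 mL xylene applied to right ear, left ear untreated. Mice killed 2 h later; punched ear pieces weighed. Swelling degree = right minus left ear weight; swelling rate = swelling degree/left ear weight ×100%.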

[5] = test system: choroidal neovascularization; experiment: Choroidal neovascularization in rats (laser photocoagulation, FFA); format: in vivo; details: BN rats
Outline: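 Male BN rats aged 6-8 weeks were given 8 krypton-laser spots around the optic disc (647.1 nm, 350 mW, 50 μm, 0.05 s). Once the model was confirmed, groups of 5 got daily intravitreal compound at 0.05 μM or saline for 1 week. FFA followed at 3, 7, 14 and 28 days after dosing.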

[6] = test system: corneal neovascularization; experiment: Corneal neovascularization induced by alkali burn in BALB/c mice; format: in vivo; parameters: Inhibition rate (corneal neovascularization): concentration or dose not given beside the values; details: day 14 after alkali burn, vitreous injection once a day for 1 week
[7] = test system: collagen-induced arthritis; experiment: Mouse collagen-induced arthritis (CIA) animal model; format: in vivo; details: DBA/1 mice CIA model, dose 4.0 mg/kg, subcutaneous from day 30, n=10; for Clinical score: highest score 16
[8] = day 3 after administration, total light spot number was 297, 0.05 μM in the vitreous chamber once a day for 1 week
[9] = day 7 after administration, total light spot number was 186, 0.05 μM in the vitreous chamber once a day for 1 week
[10] = day 14 after administration, total light spot number was 137, 0.05 μM in the vitreous chamber once a day for 1 week
[11] = day 28 after administration, total light spot number was 69, 0.05 μM in the vitreous chamber once a day for 1 week

Compound | Inhibition rate (%) (HUVECs; dose 0.05 μM) | Inhibition rate (%) (HUVECs; dose 0.1 μM) | Inhibition rate (%) (HUVECs; dose 0.2 μM) | Cell migration number (Mean ± SD) (HUVECs; dose 0.05 μM) | Cell migration number (Mean ± SD) (HUVECs; dose 0.1 μM) | Cell migration number (Mean ± SD) (HUVECs; dose 0.2 μM) | Area of neovascular plexus (mm^2) [1] [mm^2] | Inhibition rate (%) [1] | Inhibition rate (%) ([2]; dose 0.05 μM) [%*] | A570 nm-A630 nm ([2]; dose 0.05 μM) | Inhibition rate (%) ([2]; dose 0.1 μM) [%**] | A570 nm-A630 nm ([2]; dose 0.1 μM) | Inhibition rate (%) ([2]; dose 0.2 μM) [%*] | A570 nm-A630 nm ([2]; dose 0.2 μM) | AUC(0-inf) [3] [ng·h/mL] | MRT inf [3] [h] | clearance [3] [mL/min/kg] | half-life [3] [h] | Swelling degree ([4]; dose 2 mg/kg) [mg] | Inhibition rate (%) ([4]; dose 2 mg/kg) | also measured
C[C@H](NC(=O)CNC(=O)[C@H](CCCNC(=N)N)NC(=O)CCCCCCCCCCCCc1ccccc1N1C(=O)C=CC1=O)C(=O)N[C@@H](CC(=O)O)C(=O)N[C@@H](CCCNC(=N)N)C(=O)N[C@@H](C)C(=O)NCC(=O)NCC(=O)NCC(=O)NCC(=O)N[C@@H](CCCNC(=N)N)C(=O)NCC(=O)N[C@@H](CC(=O)O)C(=O)O [X24] (X84-RGADRAGGGGRGD-OH) | 49.57 | 49.95 | 51.01 | 540.49 ± 60.98 | 536.51 ± 42.41 | 525.06 ± 53.33 | 0.107 ± 0.012 | 49.53%* | 40.01 | 0.7929 ± 0.02399 | 44.87 | 0.7286 ± 0.00571 | 49.60 | 0.6661 ± 0.02372 | 29700 ± 7580 | 53.1 ± 13.5 | 0.562 | 36.77 ± 0.29 | 5.25 ± 0.06 | 15.73 | Swelling degree (mg) ([4]; dose 4 mg/kg): 4.98 ± 0.19* mg; Inhibition rate (%) ([4]; dose 4 mg/kg): 20.06%; Swelling degree (mg) ([4]; dose 8 mg/kg): 4.34 ± 0.68** mg; Inhibition rate (%) ([4]; dose 8 mg/kg): 30.34%; CNV Incidence (%) [5, 8]: 54.21%; Leakage Light spot number [5, 8]: 161; CNV Incidence (%) [5, 9]: 49.46%; Leakage Light spot number [5, 9]: 92; CNV Incidence (%) [5, 10]: 45.99%; Leakage Light spot number [5, 10]: 63; CNV Incidence (%) [5, 11]: 44.93%; Leakage Light spot number [5, 11]: 31; Inhibition rate (corneal neovascularization) [6]: 46.24%; MVD (corneal microvessel density) [6]: 36.15 ± 4.199; Joint swelling degree (mm) [7]: 0.82 ± 0.11 mm; Left and right paw swelling degree (mm) [7]: 0.71 ± 0.12 mm; Clinical score [7]: 8.94 ± 1.41
C[C@H](NC(=O)CNC(=O)[C@H](CCCNC(=N)N)NC(=O)Cc1cccc(N2C(=O)C=CC2=O)c1)C(=O)N[C@@H](CC(=O)O)C(=O)N[C@@H](CCCNC(=N)N)C(=O)N[C@@H](C)C(=O)NCC(=O)NCC(=O)NCC(=O)NCC(=O)N[C@@H](CCCNC(=N)N)C(=O)NCC(=O)N[C@@H](CC(=O)O)C(=O)O [X25] (X75-RGADRAGGGGRGD-OH) | 48.06 | 52.24 | 58.00 | 556.73 ± 40.91 | 511.9 ± 68.58 | 450.13 ± 52.7 | 0.096 ± 0.012 | 54.72%** | 50.23 | 0.6578 ± 0.08044 | 54.21 | 0.6052 ± 0.09358 | 63.33 | 0.4847 ± 0.06551 | 24600 ± 7530 | 44.1 ± 10.7 | 0.677 | 30.6 ± 0.32 | 5.62 ± 0.64 | 9.79 | Swelling degree (mg) ([4]; dose 4 mg/kg): 4.45 ± 0.20* mg; Inhibition rate (%) ([4]; dose 4 mg/kg): 28.57%; Swelling degree (mg) ([4]; dose 8 mg/kg): 3.3 ± 0.06** mg; Inhibition rate (%) ([4]; dose 8 mg/kg): 47.03%; CNV Incidence (%) [5, 8]: 51.85%; Leakage Light spot number [5, 8]: 154; CNV Incidence (%) [5, 9]: 47.31%; Leakage Light spot number [5, 9]: 88; CNV Incidence (%) [5, 10]: 43.07%; Leakage Light spot number [5, 10]: 59; CNV Incidence (%) [5, 11]: 44.93%; Leakage Light spot number [5, 11]: 31; Inhibition rate (corneal neovascularization) [6]: 52.90%; MVD (corneal microvessel density) [6]: 31.67 ± 6.856; Joint swelling degree (mm) [7]: 0.71 ± 0.18 mm; Left and right paw swelling degree (mm) [7]: 0.74 ± 0.14 mm; Clinical score [7]: 9.21 ± 1.33
C[C@H](NC(=O)CNC(=O)[C@H](CCCNC(=N)N)NC(=O)CCc1cccc(N2C(=O)C=CC2=O)c1)C(=O)N[C@@H](CC(=O)O)C(=O)N[C@@H](CCCNC(=N)N)C(=O)N[C@@H](C)C(=O)NCC(=O)NCC(=O)NCC(=O)NCC(=O)N[C@@H](CCCNC(=N)N)C(=O)NCC(=O)N[C@@H](CC(=O)O)C(=O)O [X26] (X79-RGADRAGGGGRGD-OH) | 46.81 | 48.98 | 53.86 | 570.08 ± 49.26 | 546.86 ± 60.43 | 494.57 ± 48.88 | 0.104 ± 0.001 | 50.94%** | 41.47 | 0.7736 ± 0.06908 | 48.48 | 0.6810 ± 0.02943 | 68.51 | 0.4162 ± 0.00082 | 34600 ± 8340 | 62 ± 9.63 | 0.482 | 42.95 ± 0.36 | 5.88 ± 0.72 | 5.62 | Swelling degree ([4]; dose 4 mg/kg): 5.78 ± 0.62 mg; Inhibition rate (%) ([4]; dose 4 mg/kg): 7.22%; Swelling degree (mg) ([4]; dose 8 mg/kg): 4.54 ± 0.61** mg; Inhibition rate (%) ([4]; dose 8 mg/kg): 49.76%; CNV Incidence (%) [5, 8]: 55.22%; Leakage Light spot number [5, 8]: 164; CNV Incidence (%) [5, 9]: 49.46%; Leakage Light spot number [5, 9]: 92; CNV Incidence (%) [5, 10]: 45.26%; Leakage Light spot number [5, 10]: 62; CNV Incidence (%) [5, 11]: 43.48%; Leakage Light spot number [5, 11]: 30; Inhibition rate (corneal neovascularization) [6]: 44.32%; MVD (corneal microvessel density) [6]: 37.44 ± 4.646; Joint swelling degree (mm) [7]: 0.71 ± 0.14 mm; Left and right paw swelling degree (mm) [7]: 0.84 ± 0.12 mm; Clinical score [7]: 9.07 ± 1.32
